In patent US12508300B2, “Acylated GLP-1 derivative” (Sciwind Biosciences Co., Ltd., priority 2019, dated 2025):
*1 amine or outer side, *2 acyl side, *3 side chain or, on linkers, in order; H or OH if unused. Where a SMILES comes first, the peptide text is derived from it. Side-chain parts run from the residue outwards. The star is where a group is joined. C18 diacid = O=C(O)CCCCCCCCCCCCCCCCC(=O)*; γGlu = O=C(O)[C@H](CCC(=O)[*:2])N[*:1]; AEEA = NCCOCCOCC(=O)O

What was measured:
db/db mice = experiment: Fasting blood glucose after single injection in type II diabetic db/db mice (FIG. 1); assay type: in vivo; conditions: 0.05 mg/kg s.c. single
Procedure: The dosage is 0.05 mg/kg for each, and the administration time is set as 0 h. Fasting blood glucose is measured after fasting for 6-8 h every day, and the fasting blood glucose after administration is measured every day until the fasting blood glucose value of each animal of the test group recovers to the value measured before administration. The blood glucose value measured before administration is called the basal blood glucose value, and is set as 0. Change of the fasting blood glucose (Δ: delta)=Blood glucose value after administration-Basal blood glucose value before administration.

GLP1R = target: T1, GLP1R (Homo sapiens, UniProt P43220); experiment: In vitro activity determination in HEK293/CRE-Luc/GLP1R cells (luciferase reporter); assay type: cell-based
T1 construct: expressed in transfected cells; host or cells: HEK293
T1 sequence (P43220 24-463, species assumed): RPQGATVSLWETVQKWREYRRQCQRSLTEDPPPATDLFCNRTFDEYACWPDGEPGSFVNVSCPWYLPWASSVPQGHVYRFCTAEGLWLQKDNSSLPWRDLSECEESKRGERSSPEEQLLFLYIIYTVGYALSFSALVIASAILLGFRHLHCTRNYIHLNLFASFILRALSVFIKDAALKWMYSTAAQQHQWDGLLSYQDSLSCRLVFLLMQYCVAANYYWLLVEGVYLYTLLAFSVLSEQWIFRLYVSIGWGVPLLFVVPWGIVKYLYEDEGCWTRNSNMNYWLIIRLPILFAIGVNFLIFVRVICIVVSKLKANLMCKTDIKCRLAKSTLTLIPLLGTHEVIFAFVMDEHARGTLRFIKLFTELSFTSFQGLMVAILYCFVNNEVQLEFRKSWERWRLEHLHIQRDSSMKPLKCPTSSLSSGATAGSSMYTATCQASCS
Procedure: Based on the fact that GLP-1 may bind to the receptor on the cell membrane, the HEK293/CRE-Luc/GLPIR cell line is constructed, the CAMP response elements (CRE) are activated through a series of signal transduction, the expression of downstream luciferase is initiated, and the amount of its expression is positively correlated with the biological activity of GLP-1. After adding the luciferase substrate, the chemiluminescence assay is performed to determine the luminous intensity, thereby determining the biological activity of GLP-1.
96-well cell culture plate (white and opaque), DMEM medium (GIBCO), 0.05% TRYPSIN-EDTA (GIBCO), fetal bovine serum (GIBCO), G418, hygromycin B, Bright-Glo™ Luciferase Assay System Kit (Promega), and HEK293/CRE-luc/GLP1R cells.
(1) Cell preparation: the cells are cultured until they grow vigorously and reach a sufficient quantity, discarding the culture medium in the culture bottle, adding 3 ml of Versene solution and shaking once; then adding 2 ml of 0.05% TRYPSIN-EDTA digestion solution, covering the bottle and standing for 1 minute, and then adding 6 ml of the assay medium to quench the digestion; after centrifugation at 1000 r/min for 3 min, the supernatant is discarded, and the cells are resuspended in 5 ml of assay medium and counted on a hemacytometer. The cell density is adjusted to an appropriate range for later use by using DMEM assay medium.
(2) Sample preparation: the derivatives of different GLP-1 analogues in Table 1 are diluted to 20 ng/ml with the assay medium, then gradient diluted into 8 concentrations in 96-well plates, and using the assay medium instead of the sample as the cell blank control. 2 duplicate wells are made for each dilution concentration.
(3) Culturing with addition of the samples: the prepared solutions of the control and test samples are transferred to a 96-well cell culture plate (white board), adding 50 μl of the solution to each well; then adding the prepared cell suspension, adding 50 μl of the suspension to each well; and then incubating for a certain period of time under the conditions of 37° C. and 5% CO2.
(4) Chemiluminescence assay: substrate is added, then taking out the 96-well cell culture plate, adding 100 μl of Bright Glo reagent to each well, and leaving in the dark for 3 min.
(5) Reading: determination is performed with a chemiluminescence microplate reader SpectraMax L, then reading the plate within 30 min, and recording the determined results.

Row | Compound | glucose-lowing effect compared with Semaglutide (FIG. 1) (db/db mice; day 2) | in vitro activities (comparison in words) (GLP1R) | glucose-lowing effect compared with Semaglutide (FIG. 1) (db/db mice; day 4 and day 5)
1 | CC[C@H](C)[C@H](NC(=O)[C@H](Cc1ccccc1)NC(=O)[C@H](CCC(=O)O)NC(=O)[C@H](CCCNC(=N)N)NC(=O)[C@H](C)NC(=O)[C@H](C)NC(=O)[C@H](CCC(N)=O)NC(=O)[C@H](CCC(=O)O)NC(=O)[C@H](CCC(=O)O)NC(=O)[C@H](CC(C)C)NC(=O)[C@H](Cc1ccc(O)cc1)NC(=O)[C@H](CO)NC(=O)[C@H](CO)NC(=O)[C@@H](NC(=O)[C@H](CC(=O)O)NC(=O)[C@H](CO)NC(=O)[C@@H](NC(=O)[C@H](Cc1ccccc1)NC(=O)[C@@H](NC(=O)CNC(=O)[C@H](CCC(=O)O)NC(=O)[C@H](CO)NC(=O)[C@@H](N)Cc1c[nH]cn1)[C@@H](C)O)[C@@H](C)O)C(C)C)C(=O)N[C@@H](CCCCNC(=O)COCCOCCNC(=O)COCCOCCNC(=O)CC[C@H](NC(=O)CCCCCCCCCCCCCCCCC(=O)O)C(=O)O)C(=O)N[C@@H](Cc1c[nH]c2ccccc12)C(=O)N[C@@H](CC(C)C)C(=O)N[C@H](C(=O)N[C@@H](CCCNC(=N)N)C(=O)NCC(=O)N[C@@H](CCCNC(=N)N)C(=O)NCC(=O)O)C(C)C [M17, N-ε^30-[2-(2-[2-(2-[2-(2-[4-(17-carboxyheptadecanoylamino)-4(s)-carboxybutyrylamino]ethoxy)ethoxy]acetylamino)ethoxy]ethoxy)acetyl](Ser^8Glu^22Lys^30Arg^26,34-GLP-1(7-37)) peptide] (H-HSEGTFTSDVSSYLEEQAAREFIK([AEEA-AEEA-γGlu-C18 diacid])WLVRGRG-OH; N-terminus and C-terminus assumed) | lower than that of Semaglutide | comparable | 
2 | CC[C@H](C)[C@H](NC(=O)[C@H](Cc1ccccc1)NC(=O)[C@H](CCC(=O)O)NC(=O)[C@H](CCCNC(=N)N)NC(=O)[C@H](C)NC(=O)[C@H](C)NC(=O)[C@H](CCCCNC(=O)COCCOCCNC(=O)COCCOCCNC(=O)CC[C@H](NC(=O)CCCCCCCCCCCCCCCCC(=O)O)C(=O)O)NC(=O)[C@H](CCC(=O)O)NC(=O)[C@H](CCC(=O)O)NC(=O)[C@H](CC(C)C)NC(=O)[C@H](Cc1ccc(O)cc1)NC(=O)[C@H](CO)NC(=O)[C@H](CO)NC(=O)[C@@H](NC(=O)[C@H](CC(=O)O)NC(=O)[C@H](CO)NC(=O)[C@@H](NC(=O)[C@H](Cc1ccccc1)NC(=O)[C@@H](NC(=O)CNC(=O)[C@H](CCC(=O)O)NC(=O)[C@@H](NC(=O)[C@@H](N)Cc1c[nH]cn1)[C@@H](C)CC)[C@@H](C)O)[C@@H](C)O)C(C)C)C(=O)N[C@@H](C)C(=O)N[C@@H](Cc1c[nH]c2ccccc12)C(=O)N[C@@H](CC(C)C)C(=O)N[C@H](C(=O)N[C@@H](CCCNC(=N)N)C(=O)NCC(=O)N[C@@H](CCCNC(=N)N)C(=O)NCC(=O)O)C(C)C [M9, N-ε^23-[2-(2-[2-(2-[2-(2-[4-(17-carboxyheptadecanoylamino)-4(s)-carboxybutyrylamino]ethoxy)ethoxy]acetylamino)ethoxy]ethoxy)acetyl](Ile^8Glu^22Lys^23Arg^26,34-GLP-1 (7-37)) peptide] (H-HIEGTFTSDVSSYLEEK([AEEA-AEEA-γGlu-C18 diacid])AAREFIAWLVRGRG-OH; N-terminus and C-terminus assumed) |  | comparable | better than that of Semaglutide
3 | CC[C@H](C)[C@H](NC(=O)[C@H](Cc1ccccc1)NC(=O)[C@H](CCC(=O)O)NC(=O)[C@H](CCCNC(=N)N)NC(=O)[C@H](C)NC(=O)[C@H](C)NC(=O)[C@H](CCC(N)=O)NC(=O)[C@H](CCC(=O)O)NC(=O)[C@H](CCC(=O)O)NC(=O)[C@H](CC(C)C)NC(=O)[C@H](Cc1ccc(O)cc1)NC(=O)[C@H](CO)NC(=O)[C@H](CO)NC(=O)[C@@H](NC(=O)[C@H](CC(=O)O)NC(=O)[C@H](CO)NC(=O)[C@@H](NC(=O)[C@H](Cc1ccccc1)NC(=O)[C@@H](NC(=O)CNC(=O)[C@H](CCC(=O)O)NC(=O)CNC(=O)[C@@H](N)Cc1c[nH]cn1)[C@@H](C)O)[C@@H](C)O)C(C)C)C(=O)N[C@@H](CCCCNC(=O)COCCOCCNC(=O)COCCOCCNC(=O)CC[C@H](NC(=O)CCCCCCCCCCCCCCCCC(=O)O)C(=O)O)C(=O)N[C@@H](Cc1c[nH]c2ccccc12)C(=O)N[C@@H](CC(C)C)C(=O)N[C@H](C(=O)N[C@@H](CCCNC(=N)N)C(=O)NCC(=O)N[C@@H](CCCNC(=N)N)C(=O)NCC(=O)O)C(C)C [M16, N-ε^30-[2-(2-[2-(2-[2-(2-[4-(17-carboxyheptadecanoylamino)-4(s)-carboxybutyrylamino]ethoxy)ethoxy]acetylamino)ethoxy]ethoxy)acetyl](Gly^8Glu^22Lys^30Arg^26,34-GLP-1(7-37)) peptide] (H-HGEGTFTSDVSSYLEEQAAREFIK([AEEA-AEEA-γGlu-C18 diacid])WLVRGRG-OH; N-terminus and C-terminus assumed) | lower than that of Semaglutide | comparable | 
4 | CC[C@H](C)[C@H](NC(=O)[C@H](Cc1ccccc1)NC(=O)[C@H](CCC(=O)O)NC(=O)[C@H](CCCNC(=N)N)NC(=O)[C@H](C)NC(=O)[C@H](C)NC(=O)[C@H](CCCCNC(=O)COCCOCCNC(=O)COCCOCCNC(=O)CC[C@H](NC(=O)CCCCCCCCCCCCCCCCC(=O)O)C(=O)O)NC(=O)[C@H](CCC(=O)O)NC(=O)[C@H](CCC(=O)O)NC(=O)[C@H](CC(C)C)NC(=O)[C@H](Cc1ccc(O)cc1)NC(=O)[C@H](CO)NC(=O)[C@H](CO)NC(=O)[C@@H](NC(=O)[C@H](CC(=O)O)NC(=O)[C@H](CO)NC(=O)[C@@H](NC(=O)[C@H](Cc1ccccc1)NC(=O)[C@@H](NC(=O)CNC(=O)[C@H](CCC(=O)O)NC(=O)CNC(=O)[C@@H](N)Cc1c[nH]cn1)[C@@H](C)O)[C@@H](C)O)C(C)C)C(=O)N[C@@H](C)C(=O)N[C@@H](Cc1c[nH]c2ccccc12)C(=O)N[C@@H](CC(C)C)C(=O)N[C@H](C(=O)N[C@@H](CCCNC(=N)N)C(=O)NCC(=O)N[C@@H](CCCNC(=N)N)C(=O)NCC(=O)O)C(C)C [M11, N-ε^23-[2-(2-[2-(2-[2-(2-[4-(17-carboxyheptadecanoylamino)-4(s)-carboxybutyrylamino]ethoxy)ethoxy]acetylamino)ethoxy]ethoxy)acetyl](Gly^8Glu^22Lys^23Arg^26,34-GLP-1(7-37)) peptide] (H-HGEGTFTSDVSSYLEEK([AEEA-AEEA-γGlu-C18 diacid])AAREFIAWLVRGRG-OH; N-terminus and C-terminus assumed) | lower than that of Semaglutide | comparable | 
5 | CC[C@H](C)[C@H](NC(=O)[C@H](Cc1ccccc1)NC(=O)[C@H](CCC(=O)O)NC(=O)[C@H](CCCNC(=N)N)NC(=O)[C@H](C)NC(=O)[C@H](C)NC(=O)[C@H](CCC(N)=O)NC(=O)[C@H](CCC(=O)O)NC(=O)[C@H](CCC(=O)O)NC(=O)[C@H](CC(C)C)NC(=O)[C@H](Cc1ccc(O)cc1)NC(=O)[C@H](CO)NC(=O)[C@H](CO)NC(=O)[C@@H](NC(=O)[C@H](CC(=O)O)NC(=O)[C@H](CO)NC(=O)[C@@H](NC(=O)[C@H](Cc1ccccc1)NC(=O)[C@@H](NC(=O)CNC(=O)[C@H](CCC(=O)O)NC(=O)[C@@H](NC(=O)[C@@H](N)Cc1c[nH]cn1)[C@@H](C)O)[C@@H](C)O)[C@@H](C)O)C(C)C)C(=O)N[C@@H](CCCCNC(=O)COCCOCCNC(=O)COCCOCCNC(=O)CC[C@H](NC(=O)CCCCCCCCCCCCCCCCC(=O)O)C(=O)O)C(=O)N[C@@H](Cc1c[nH]c2ccccc12)C(=O)N[C@@H](CC(C)C)C(=O)N[C@H](C(=O)N[C@@H](CCCNC(=N)N)C(=O)NCC(=O)N[C@@H](CCCNC(=N)N)C(=O)NCC(=O)O)C(C)C [M13] (H-HTEGTFTSDVSSYLEEQAAREFIK([AEEA-AEEA-γGlu-C18 diacid])WLVRGRG-OH; N-terminus and C-terminus assumed) |  |  | better than that of Semaglutide
